What was measured:
[1] = Drug conversion assessed as formation of oxazole derivatives in presence of Zn/HOAc; assay type: physicochemical
Salmonella typhimurium = experiment: Mutagenicity in Salmonella typhimurium TA100; assay type: toxicity, organism-based; settings: salmonella enterica subsp. enterica serovar typhimurium

COc1cccc2c1cc([N+](=O)[O-])c1c(C(=O)O)cc3c(c12)OCO3 [ARISTOLOCHIC ACID]
Drug metabolism [1]: Active | Activity (Salmonella typhimurium): Toxic

Source: ChEMBL document CHEMBL2069234, “Aristoxazole analogues. Conversion of 8-nitro-1-naphthoic acid to 2-methylnaphtho[1,2-d]oxazole-9-carboxylic acid: comments on the chemical mechanism of formation of DNA adducts by the aristolochic acids” (J Nat Prod, 2012)
